This note sets out measurements from patent US4408054A, “Oximes of 4-benzoyl-piperidines” (Hoechst-Roussel Pharmaceuticals Inc., priority 1982, dated 1983).

This assay relates to mice. The assay is described as follows: phenyl-p-quinone writhing assay in mice (analgesia). It is filed as in vivo. The note with it: Mus musculus, sc, read-out: ED50 (subcutaneous dose effecting an approximately 50% inhibition of writhing). From the text:
The 3-(4-piperidyl)-1,2-benzisoxazoles of the present invention are useful as analgetics due to their ability to alleviate pain in mammals. […] Exptl. Biol Med., 95 729 (1957)]. Thus, for instance, the subcutaneous dose effecting an approximately 50% inhibition of writhing (ED50) in mice produced in this assay is as follows: […]
(In general: Writhing tests count abdominal constrictions after an irritant is injected.)

Setting [1] is: mice, subcutaneous, phenyl-p-quinone writhing.

Structures are written as SMILES. Read-outs that look alike come from different tables or passages of the source.

One may read the ED50 as the midpoint of the dose-response relation. As to `Cc1ccc2onc(C3CCN(C)CC3)c2c1.O=C(O)/C=C/C(=O)O` [3-(1-Methyl-4-piperidyl)-5-methyl-1,2-benzisoxazole fumarate], the ED50 amounted to 0.566 mg/kg.

Consider `Cl.Fc1ccc2c(C3CCNCC3)noc2c1` [3-(4-Piperidyl)-6-fluoro-1,2-benzisoxazole hydrochloride], for which the ED50 came out at 1.79 mg/kg.

As for `Cl.Clc1ccc2c(C3CCNCC3)noc2c1` [3-(4-Piperidyl)-6-chloro-1,2-benzisoxazole hydrochloride], the ED50 came out at 5.6 mg/kg.

On to `Cl.c1ccc2c(C3CCNCC3)noc2c1` [3-(4-Piperidyl)-1,2-benzisoxazole hydrochloride], for which the median effective dose (ED50) worked out at 0.517 mg/kg.

`CC(C)=CCN1CCC2(C)c3cc(O)ccc3CC1C2C` (centres unmarked) [pentazocine, reference compound]: the ED50 worked out at 1.3 mg/kg.

Take `C=CCN1CCC(c2noc3ccccc23)CC1.Cl` [3-(1-Allyl-4-piperidyl)-1,2-benzisoxazole hydrochloride]: the ED50 under setting [1] worked out at 1.06 mg/kg.

Turning to `CCC(=O)O[C@](Cc1ccccc1)(c1ccccc1)[C@H](C)CN(C)C` [propoxyphene, reference compound], the ED50 worked out at 3.9 mg/kg.

`Cl.c1ccc(CCN2CCC(c3noc4ccccc34)CC2)cc1` [3-[1-(β-Phenylethyl)-4-piperidyl]-1,2-benzisoxazole hydrochloride]: the ED50 under setting [1] is 0.386 mg/kg.

With `CN1CCC(c2noc3ccccc23)CC1.Cl` [3-(1-Methyl-4-piperidyl)-1,2-benzisoxazole hydrochloride], the ED50 was determined as 0.415 mg/kg.

Consider `C=CCN1CCC(c2noc3cc(F)ccc23)CC1.Cl` [3-(1-Allyl-4-piperidyl)-6-fluoro-1,2-benzisoxazole hydrochloride], for which, under setting [1], the ED50 was 0.455 mg/kg.

As for `CN(C)CCCN1CCC(c2noc3ccccc23)CC1.O=C(O)/C=C/C(=O)O.O=C(O)/C=C/C(=O)O` [3-[1-(3-Dimethylaminopropyl)-4-piperidyl]-1,2-benzisoxazole difumarate], the ED50 under setting [1] worked out at 7.4 mg/kg.
